# Test results from patent publication US20230220047A1, “PEPTIDES FOR TREATMENT OF SEPSIS AND CANCER” (NORWEGIAN UNIVERSITY OF SCIENCE AND TECHNOLOGY (NTNU), priority 2020, published 2023).
# What was measured:
# TLR7 = test: qPCR of R837-induced TLR7-mediated cytokine expression in human monocytes; assay type: cell-based; details: 15 μM, R837 1 μg/ml
# Method: Cells were pre-treated with 15 μM peptides for 30 min, followed by the addition of LPS (100 ng/ml) (A), R837 (1 μg/ml) (B) or CL075 (1 μg/ml) for increasing lengths of time.
# As previously shown, P7-Pen inhibits TLR8-mediated IFNβ expression in human monocytes, without significant effect on the expression of pro-inflammatory cytokines. Human cells express one more endosomal RNA sensor in addition to TLR8: TLR7, which uses similar signaling pathways to induce cytokine expression as the TLR8 receptor. To investigate the effect of P7-Pen on TLR7-mediated signaling, human monocytes were stimulated with imiquimod (R837), an imidazoquinoline amine analog to guanosine, which activates only TLR7, not TLR8 (Lee et al., PNAS 100(11): 6646-6651 (2003)). […] TNF and IL-1β expression were not induced in monocytes by the R837 TLR7 agonist even in control treated cells (FIG. 18C).
# TLR4 = test: Cytokine expression in primary human monocytes stimulated by LPS or E. coli particles; assay type: cell-based
# Method: Use of human monocytes from blood donors was approved by the Regional Committees for Medical and Health Research Ethics at the Norwegian University of Science and Technology (NTNU). Human monocytes were isolated from buffy coats by adherence as previously described (Husebye et al., Immunity 33: 583-596, 2010). Briefly, freshly prepared buffy coat (The Blood Bank, St. Olav's Hospital, Trondheim, Norway) was diluted in 100 ml PBS, and PBMCs isolated by density gradient centrifugation using Lymphoprep (Axis-Shield) according to the manufacturer's instructions. […] Cells were counted using a Z2 Coulter Particle Count and Size Analyzer (Beckman Coulter) on program B, re-suspended in RPM11640 (Sigma) supplemented with 5% pooled human serum at a concentration of 8×10^6 per ml and seeded into 6-well (1 ml per well) or 24-well (0.5 ml per well) cell culture dishes. […] Total RNA was isolated from the cells using Qiazol reagent #79306 from QIAGEN, and chloroform extraction followed by purification on RNeasy Mini columns with DNAse digestion (Qiagen). cDNA was prepared using the Maxima First Strand cDNA Synthesis Kit for quantitative real-time polymerase chain reaction (RT-qPCR) (Thermo Fisher Scientific) according to the manufacturer's protocol. qPCR was performed using the PerfeCTa qPCR FastMix (Quanta Biosciences) in replicates and cycled in a StepOnePlusTM Real-Time PCR cycler. […]
# TLR9 = assay type: cell-based, human; details: 15 μM, 1 h pre-treatment, CpG 2006
# Method: CpG 2006 (10 μM) was used as specific TLR9 ligand. (A) Results of LDH assay on SNs from stimulated cells. (B-E) Results of qPCR analysis of cytokine expression with TaqMan probes. (F) Results of ELISA for secreted IL-113 levels. Cells were pre-treated with 15 μM peptides for 1 h, followed by addition of CpG 2006 to the cell culture media.
# We then tested whether P7-Pen could alter signaling via another endosomal PRR: TLR9, which recognises specific unmethylated CpG motifs prevalent in microbial DNA. In humans, TLR9 is almost exclusively expressed in B cells and plasmacytoid dendritic cells (pDC), while in mice TLR9 is expressed more widely, including in myeloid immune cells. To test the effect of P7-Pen on signaling via human TLR9 we used a model system of THP-1 cells expressing an inducible TLR9^CHERRY construct. 48 hr after induction of TLR9 expression by doxycycline, undifferentiated THP-1 TLR9^CHERRY cells were pre-treated with control or P7-Pen peptide for 1 hr, then stimulated with the Class B CpG oligonucleotide CpG 2006 ODN (a human-specific TLR9 agonist). […] Thus, P7 peptide could also be used to inhibit the expression of selected cytokines mediated by TLR9 in human disease.
substance,measurement,setting,value
Ac-ITVYASVTLTGRQIKIWFQNRRMKWKK-NH2 [Peptide P7-Pen],TLR7-mediated IFNβ mRNA expression,TLR7,inhibits
same,TLR7-mediated IL-6 expression,TLR7,delayed activation
same,"IFNβ, TNF, IL-1β and IL-6 expression in response to TLR4 stimulation","TLR4; 15 μM, 30 min pre-treatment, LPS 100 ng/ml, all tested donors",significantly decreased
same,reducing cytokine secretion by monocytes stimulated by E. coli particles,TLR4; P7-Pen 15 μM vs P7-Arg11 10 μM,more effective than P7-Arg11
same,TLR9-mediated IFNβ and CXCL10 expression,TLR9,strongly inhibited
same,TLR9-mediated expression of TNF and IL-1β,TLR9,to some extent inhibited
